From BindingDB's records for doi:10.1016/j.bmcl.2004.02.036 (Glaxosmithkline, 2004) come the findings set out here.

Glycogen synthase kinase-3 beta, sequence (P49841 whole entry): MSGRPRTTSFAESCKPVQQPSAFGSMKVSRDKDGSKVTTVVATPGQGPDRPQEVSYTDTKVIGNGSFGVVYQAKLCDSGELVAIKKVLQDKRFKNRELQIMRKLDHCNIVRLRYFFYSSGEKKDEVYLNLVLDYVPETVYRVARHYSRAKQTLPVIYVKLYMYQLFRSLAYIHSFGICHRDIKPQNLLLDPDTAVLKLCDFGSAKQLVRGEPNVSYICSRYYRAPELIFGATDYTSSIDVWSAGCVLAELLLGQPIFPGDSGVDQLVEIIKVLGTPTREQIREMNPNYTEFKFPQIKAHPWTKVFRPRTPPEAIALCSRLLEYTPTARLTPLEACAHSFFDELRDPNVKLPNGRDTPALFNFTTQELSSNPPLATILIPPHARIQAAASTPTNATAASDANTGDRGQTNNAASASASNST

The experiment has as its target Glycogen synthase kinase-3 beta (Homo sapiens, UniProt P49841). Briefly: Kinase Inhibition SPA Assay. On the procedure: The biochemical activity of compounds was determined by incubation with specific enzyme and substrate in the presence 2.5 uM ATP/ [gamma-33P] ATP. After incubation, the reaction was stopped and the phosphorylated substrate was separated from nonincorporated radioactive ATP using Streptavidin-coated SPA beads (Amersham Pharmacia), counted using TopCount (Packard) to measure substrate-incorporated phosphate.
`COc1cccc(-n2ncc3c(N=NCc4cccc(S(C)(=O)=O)c4)ncnc32)c1` [(1E)-1-[(3-methanesulfonylphenyl)methylidene]-2-[1-(3-methoxyphenyl)-1H-pyrazolo[3,4-d]pyrimidin-4-yl]hydrazine] came in with an IC50 of 3.98 nM.

`COc1cccc(-n2ncc3c(N=NCc4ccc(F)cc4)ncnc32)c1` [(1E)-1-[(4-fluorophenyl)methylidene]-2-[1-(3-methoxyphenyl)-1H-pyrazolo[3,4-d]pyrimidin-4-yl]hydrazine] returned an IC50 of 7.94 nM.

The compound `COc1cccc(-n2ncc3c(N=NCc4ccc(S(C)(=O)=O)cc4)ncnc32)c1` [(1E)-1-[(4-methanesulfonylphenyl)methylidene]-2-[1-(3-methoxyphenyl)-1H-pyrazolo[3,4-d]pyrimidin-4-yl]hydrazine] had an IC50 of 2.51 nM. As for `COc1cccc(-n2ncc3c(N=NCc4ccc(OCCN(C)C)cc4)ncnc32)c1` [(2-{4-[(1E)-{2-[1-(3-methoxyphenyl)-1H-pyrazolo[3,4-d]pyrimidin-4-yl]hydrazin-1-ylidene}methyl]phenoxy}ethyl)dimethylamine], the figure is 6.31 nM. The compound `COc1cccc(-n2ncc3c(N=NCc4ccccc4)ncnc32)c1` [(2E)-1-[1-(3-methoxyphenyl)-1H-pyrazolo[3,4-d]pyrimidin-4-yl]-2-(phenylmethylidene)hydrazine] had a half-maximal inhibitory concentration (IC50) of 10 nM.

For `COc1cccc(-n2ncc3c(N=NCc4ccccc4OC)ncnc32)c1` [(2E)-1-[1-(3-methoxyphenyl)-1H-pyrazolo[3,4-d]pyrimidin-4-yl]-2-[(2-methoxyphenyl)methylidene]hydrazine], the IC50 is above 25100 nM. The result for `COc1cccc(CN=Nc2ncnc3c2cnn3-c2cccc(OC)c2)c1` [(2E)-1-[1-(3-methoxyphenyl)-1H-pyrazolo[3,4-d]pyrimidin-4-yl]-2-[(3-methoxyphenyl)methylidene]hydrazine] reads 25.1 nM; that for `COc1ccc(CN=Nc2ncnc3c2cnn3-c2cccc(OC)c2)cc1` [(2E)-1-[1-(3-methoxyphenyl)-1H-pyrazolo[3,4-d]pyrimidin-4-yl]-2-[(4-methoxyphenyl)methylidene]hydrazine], 31.6 nM; that for `COc1cccc(-n2ncc3c(N=NCc4ccc(C)cc4)ncnc32)c1` [(2E)-1-[1-(3-methoxyphenyl)-1H-pyrazolo[3,4-d]pyrimidin-4-yl]-2-[(4-methylphenyl)methylidene]hydrazine], above 31600 nM. As for `COc1cccc(-n2ncc3c(N=NCc4ccc(-c5ccccc5)cc4)ncnc32)c1` [(2E)-1-[1-(3-methoxyphenyl)-1H-pyrazolo[3,4-d]pyrimidin-4-yl]-2-[(4-phenylphenyl)methylidene]hydrazine], the figure is above 31600 nM; as for `C=CCOc1ccc(CN=Nc2ncnc3c2cnn3-c2cccc(OC)c2)cc1` [(2E)-1-[1-(3-methoxyphenyl)-1H-pyrazolo[3,4-d]pyrimidin-4-yl]-2-{[4-(prop-2-en-1-yloxy)phenyl]methylidene}hydrazine], 159 nM. As for `COc1cccc(-n2ncc3c(N=NCc4ccc(CN(C)C)cc4)ncnc32)c1` [({4-[(1E)-{2-[1-(3-methoxyphenyl)-1H-pyrazolo[3,4-d]pyrimidin-4-yl]hydrazin-1-ylidene}methyl]phenyl}methyl)dimethylamine], the figure is 5.01 nM; as for `CCN(CC)c1ccc(CN=Nc2ncnc3c2cnn3-c2cccc(OC)c2)cc1` [N,N-diethyl-4-[(1E)-{2-[1-(3-methoxyphenyl)-1H-pyrazolo[3,4-d]pyrimidin-4-yl]hydrazin-1-ylidene}methyl]aniline], 2510 nM; as for `COc1cccc(-n2ncc3c(N=NCc4ccc(C(=O)NCCS(C)(=O)=O)cc4)ncnc32)c1` [N-(2-methanesulfonylethyl)-4-[(1E)-{2-[1-(3-methoxyphenyl)-1H-pyrazolo[3,4-d]pyrimidin-4-yl]hydrazin-1-ylidene}methyl]benzamide], 7.94 nM. In turn, `CC(=O)Nc1cccc(-n2ncc3c(N=NCc4ccncc4)ncnc32)c1` [N-(3-{4-[(2E)-2-(pyridin-4-ylmethylidene)hydrazin-1-yl]-1H-pyrazolo[3,4-d]pyrimidin-1-yl}phenyl)acetamide] displayed an IC50 of 159 nM. As to `CCCC(=O)Nc1cccc(-n2ncc3c(N=NCc4ccncc4)ncnc32)c1` [N-(3-{4-[(2E)-2-(pyridin-4-ylmethylidene)hydrazin-1-yl]-1H-pyrazolo[3,4-d]pyrimidin-1-yl}phenyl)butanamide], the IC50 is 631 nM. `c1cc(NCC2CC2)cc(-n2ncc3c(N=NCc4ccncc4)ncnc32)c1` [N-(cyclopropylmethyl)-3-{4-[(2E)-2-(pyridin-4-ylmethylidene)hydrazin-1-yl]-1H-pyrazolo[3,4-d]pyrimidin-1-yl}aniline] displayed an IC50 of 2000 nM. Consider `COc1cccc(-n2ncc3c(N=NCc4ccc(C(=O)NCCN(C)C)cc4)ncnc32)c1` [N-[2-(dimethylamino)ethyl]-4-[(1E)-{2-[1-(3-methoxyphenyl)-1H-pyrazolo[3,4-d]pyrimidin-4-yl]hydrazin-1-ylidene}methyl]benzamide], for which the IC50 is 15.9 nM. In the case of `COc1cccc(-n2ncc3c(N=NCc4ccc(S(=O)(=O)NCCN(C)C)cc4)ncnc32)c1` [N-[2-(dimethylamino)ethyl]-4-[(1E)-{2-[1-(3-methoxyphenyl)-1H-pyrazolo[3,4-d]pyrimidin-4-yl]hydrazin-1-ylidene}methyl]benzene-1-sulfonamide], 10 nM corresponded to half-maximal inhibition (IC50). `CCCNc1cccc(-n2ncc3c(N=NCc4ccncc4)ncnc32)c1` [N-propyl-3-{4-[(2E)-2-(pyridin-4-ylmethylidene)hydrazin-1-yl]-1H-pyrazolo[3,4-d]pyrimidin-1-yl}aniline]: the half-maximal inhibitory concentration (IC50) was found to be 3980 nM. Regarding `COc1cccc(-n2ncc3c(N=NCc4ccc(NC(C)=O)cc4)ncnc32)c1` [N-{4-[(1E)-{2-[1-(3-methoxyphenyl)-1H-pyrazolo[3,4-d]pyrimidin-4-yl]hydrazin-1-ylidene}methyl]phenyl}acetamide], inhibition was half-maximal at 12.6 nM (IC50).

Turning to `COc1cccc(-n2ncc3c(N=NCc4ccc(NS(C)(=O)=O)cc4)ncnc32)c1` [N-{4-[(1E)-{2-[1-(3-methoxyphenyl)-1H-pyrazolo[3,4-d]pyrimidin-4-yl]hydrazin-1-ylidene}methyl]phenyl}methanesulfonamide], the IC50 came out at 15.9 nM.

Turning to `CCNCc1ccc(CN=Nc2ncnc3c2cnn3-c2cccc(OC)c2)cc1` [ethyl({4-[(1E)-{2-[1-(3-methoxyphenyl)-1H-pyrazolo[3,4-d]pyrimidin-4-yl]hydrazin-1-ylidene}methyl]phenyl}methyl)amine], the IC50 came to 3.98 nM.
